{
  "source": "patent US20160158317A1",
  "about": "“Antimicrobial Peptide Variants and Polynucleotides Encoding Same” (Adenium Biotech A/S, priority 2010, published 2016)",
  "assay": "Determination of the protein binding (90% serum, 30 kDa filter, HPLC)",
  "type": "in vitro ADME",
  "conditions": "serum",
  "method": "Protein binding assays were performed as follows. The purified peptides were mixed with 90% serum and centrifuged through a 30 kDa filter. The ultra-filtrate and the non filtrated serum samples were quantified by HPLC measurements and the protein binding was subsequently calculated.",
  "note": "Where a SMILES comes first, the peptide text is derived from it. Bridges are numbered along the chain shown (N, C = ends).",
  "data": [
    {"smiles": "CC(C)C[C@@H]1NC(=O)[C@H](CCCNC(=N)N)NC(=O)[C@H](C(C)C)NC(=O)CNC(=O)[C@H](CC(N)=O)NC(=O)[C@H](CCCNC(=N)N)NC(=O)[C@H](Cc2ccc(O)cc2)NC(=O)[C@H](C(C)C)NC(=O)[C@@H]2CSSC[C@H](NC1=O)C(=O)N[C@@H](Cc1c[nH]cn1)C(=O)N[C@@H](CCCNC(=N)N)C(=O)N[C@@H](CCCNC(=N)N)C(=O)N[C@H](C(=O)N[C@@H](CC(N)=O)C(=O)O)CSSC[C@H](NC(=O)[C@H](Cc1ccccc1)NC(=O)CN)C(=O)N[C@@H](Cc1c[nH]c3ccccc13)C(=O)N[C@@H](CC(N)=O)C(=O)N[C@@H](C(C)C)C(=O)N2", "note": "[compound 249] (H-GFCWNVCVYRNGVRLCHRRCN-OH; disulfide 3-20, 7-16 (inferred); N-terminus and C-terminus assumed)", "values": [
      {"measurement": "fraction unbound", "result": 0.17}
    ]},
    {"smiles": "CC(C)[C@@H]1NC(=O)CNC(=O)[C@H](CC(N)=O)NC(=O)[C@H](CCCNC(=N)N)NC(=O)[C@H](Cc2ccc(O)cc2)NC(=O)[C@H](C(C)C)NC(=O)[C@@H]2CSSC[C@H](NC(=O)[C@H](CC(N)=O)NC(=O)[C@H](CCCNC(=N)N)NC1=O)C(=O)N[C@@H](Cc1ccc(O)cc1)C(=O)N[C@@H](CCCNC(=N)N)C(=O)N[C@@H](CCCNC(=N)N)C(=O)N[C@H](C(=O)N[C@@H](CC(N)=O)C(=O)O)CSSC[C@H](NC(=O)[C@H](Cc1ccccc1)NC(=O)CN)C(=O)N[C@@H](Cc1c[nH]c3ccccc13)C(=O)N[C@@H](Cc1ccc(O)cc1)C(=O)N[C@@H](C(C)C)C(=O)N2", "note": "[compound 41] (H-GFCWYVCVYRNGVRNCYRRCN-OH; disulfide 3-20, 7-16 (inferred); N-terminus and C-terminus assumed)", "values": [
      {"measurement": "fraction unbound", "result": 0.03}
    ]},
    {"smiles": "CC(C)[C@@H]1NC(=O)CNC(=O)[C@H](CC(N)=O)NC(=O)[C@H](CCCNC(=N)N)NC(=O)[C@H](CCCCN)NC(=O)[C@H](C)NC(=O)[C@@H]2CSSC[C@H](NC(=O)[C@H](C(C)C)NC(=O)[C@H](CCCNC(=N)N)NC1=O)C(=O)N[C@@H](Cc1ccc(O)cc1)C(=O)N[C@@H](CCCNC(=N)N)C(=O)N[C@@H](CCCNC(=N)N)C(=O)N[C@H](C(=O)N[C@@H](CC(N)=O)C(=O)O)CSSC[C@H](NC(=O)[C@H](Cc1ccccc1)NC(=O)CN)C(=O)N[C@@H](C)C(=O)N[C@@H](CCCNC(=N)N)C(=O)N[C@@H](C(C)C)C(=O)N2", "note": "[compound 363] (H-GFCARVCAKRNGVRVCYRRCN-OH; disulfide 3-20, 7-16 (inferred); N-terminus and C-terminus assumed)", "values": [
      {"measurement": "fraction unbound", "result": 0.2}
    ]},
    {"smiles": "CC(C)[C@@H]1NC(=O)CNC(=O)[C@H](CC(N)=O)NC(=O)[C@H](CCCNC(=N)N)NC(=O)[C@H](CCCNC(=N)N)NC(=O)[C@H](C(C)C)NC(=O)[C@@H]2CSSC[C@H](NC(=O)[C@H](C(C)C)NC(=O)[C@H](CCCNC(=N)N)NC1=O)C(=O)N[C@@H](Cc1ccc(O)cc1)C(=O)N[C@@H](CCCNC(=N)N)C(=O)N[C@@H](CCCNC(=N)N)C(=O)N[C@H](C(=O)N[C@@H](CC(N)=O)C(=O)O)CSSC[C@H](NC(=O)[C@H](Cc1ccccc1)NC(=O)CN)C(=O)N[C@@H](Cc1c[nH]c3ccccc13)C(=O)N[C@@H](Cc1ccc(O)cc1)C(=O)N[C@@H](C(C)C)C(=O)N2", "note": "[compound 28] (H-GFCWYVCVRRNGVRVCYRRCN-OH; disulfide 3-20, 7-16 (inferred); N-terminus and C-terminus assumed)", "values": [
      {"measurement": "fraction unbound", "result": 0.08}
    ]},
    {"smiles": "CC(C)[C@@H]1NC(=O)CNC(=O)[C@H](CC(N)=O)NC(=O)[C@H](CCCNC(=N)N)NC(=O)[C@H](Cc2ccc(O)cc2)NC(=O)[C@H](C(C)C)NC(=O)[C@@H]2CSSC[C@H](NC(=O)CNC(=O)[C@H](CCCNC(=N)N)NC1=O)C(=O)N[C@@H](Cc1c[nH]cn1)C(=O)N[C@@H](CCCNC(=N)N)C(=O)N[C@@H](CCCNC(=N)N)C(=O)N[C@H](C(=O)N[C@@H](CC(N)=O)C(=O)O)CSSC[C@H](NC(=O)[C@H](Cc1ccccc1)NC(=O)CN)C(=O)N[C@@H](Cc1c[nH]c3ccccc13)C(=O)N[C@@H](CC(N)=O)C(=O)N[C@@H](C(C)C)C(=O)N2", "note": "[compound 246] (H-GFCWNVCVYRNGVRGCHRRCN-OH; disulfide 3-20, 7-16 (inferred); N-terminus and C-terminus assumed)", "values": [
      {"measurement": "fraction unbound", "result": 0.21}
    ]},
    {"smiles": "CC(C)[C@@H]1NC(=O)[C@@H]2CSSC[C@H](NC(=O)[C@H](C(C)C)NC(=O)[C@H](CCCNC(=N)N)NC(=O)[C@H](C(C)C)NC(=O)[C@H](Cc3ccc(O)cc3)NC(=O)[C@H](CC(N)=O)NC(=O)[C@H](CCCNC(=N)N)NC(=O)[C@H](Cc3ccc(O)cc3)NC1=O)C(=O)N[C@@H](Cc1c[nH]cn1)C(=O)N[C@@H](CCCNC(=N)N)C(=O)N[C@@H](CCCNC(=N)N)C(=O)N[C@H](C(=O)N[C@@H](CC(N)=O)C(=O)O)CSSC[C@H](NC(=O)[C@H](Cc1ccccc1)NC(=O)CN)C(=O)N[C@@H](Cc1c[nH]c3ccccc13)C(=O)N[C@@H](CC(N)=O)C(=O)N[C@@H](C(C)C)C(=O)N2", "note": "[compound 229] (H-GFCWNVCVYRNYVRVCHRRCN-OH; disulfide 3-20, 7-16 (inferred); N-terminus and C-terminus assumed)", "values": [
      {"measurement": "fraction unbound", "result": 0.09}
    ]},
    {"smiles": "CC(C)[C@@H]1NC(=O)[C@H](CCCNC(=N)N)NC(=O)[C@H](Cc2c[nH]c3ccccc23)NC(=O)[C@@H](NC(=O)[C@H](Cc2ccccc2)NC(=O)CN)CSSC[C@@H](C(=O)N[C@@H](CC(N)=O)C(=O)O)NC(=O)[C@H](CCCNC(=N)N)NC(=O)[C@H](CCCNC(=N)N)NC(=O)[C@H](Cc2ccc(O)cc2)NC(=O)[C@@H]2CSSC[C@H](NC1=O)C(=O)N[C@@H](C)C(=O)N[C@@H](Cc1ccc(O)cc1)C(=O)N[C@@H](CO)C(=O)N[C@@H](CC(N)=O)C(=O)NCC(=O)N[C@@H](CCCCN)C(=O)N[C@@H](CCCNC(=N)N)C(=O)N[C@@H](C(C)C)C(=O)N2", "note": "[compound 425] (H-GFCWRVCAYSNGKRVCYRRCN-OH; disulfide 3-20, 7-16 (inferred); N-terminus and C-terminus assumed)", "values": [
      {"measurement": "fraction unbound", "result": 0.31}
    ]},
    {"smiles": "CC(C)[C@@H]1NC(=O)CNC(=O)[C@H](CC(N)=O)NC(=O)[C@H](CCCNC(=N)N)NC(=O)[C@H](Cc2ccc(O)cc2)NC(=O)[C@H](C(C)C)NC(=O)[C@@H]2CSSC[C@H](NC(=O)[C@H](C(C)C)NC(=O)[C@H](CCCNC(=N)N)NC1=O)C(=O)N[C@@H](Cc1ccc(O)cc1)C(=O)N[C@@H](CCCNC(=N)N)C(=O)N[C@@H](CCCNC(=N)N)C(=O)N[C@H](C(=O)N[C@@H](CO)C(=O)O)CSSC[C@H](NC(=O)[C@H](Cc1ccccc1)NC(=O)CN)C(=O)NCC(=O)N[C@@H](Cc1c[nH]cn1)C(=O)N[C@@H](C(C)C)C(=O)N2", "note": "[compound 144] (H-GFCGHVCVYRNGVRVCYRRCS-OH; disulfide 3-20, 7-16 (inferred); N-terminus and C-terminus assumed)", "values": [
      {"measurement": "fraction unbound", "result": 0.32}
    ]},
    {"smiles": "CC(C)[C@@H]1NC(=O)CNC(=O)[C@H](CC(N)=O)NC(=O)[C@H](CCCNC(=N)N)NC(=O)[C@H](C)NC(=O)[C@H](C(C)C)NC(=O)[C@@H]2CSSC[C@H](NC(=O)[C@H](C(C)C)NC(=O)[C@H](CCCNC(=N)N)NC1=O)C(=O)N[C@@H](Cc1c[nH]cn1)C(=O)N[C@@H](CCCNC(=N)N)C(=O)N[C@@H](CCCNC(=N)N)C(=O)N[C@H](C(=O)N[C@@H](CC(N)=O)C(=O)O)CSSC[C@H](NC(=O)[C@H](Cc1ccccc1)NC(=O)CN)C(=O)N[C@@H](Cc1c[nH]c3ccccc13)C(=O)N[C@@H](CC(N)=O)C(=O)N[C@@H](C(C)C)C(=O)N2", "note": "[compound 299] (H-GFCWNVCVARNGVRVCHRRCN-OH; disulfide 3-20, 7-16 (inferred); N-terminus and C-terminus assumed)", "values": [
      {"measurement": "fraction unbound", "result": 0.26}
    ]},
    {"smiles": "CC(C)C[C@@H]1NC(=O)[C@@H]2CSSC[C@H](NC(=O)[C@H](C(C)C)NC(=O)[C@H](CCCNC(=N)N)NC(=O)[C@H](C(C)C)NC(=O)CNC(=O)[C@H](CC(N)=O)NC(=O)[C@H](CCCNC(=N)N)NC(=O)[C@H](Cc3ccc(O)cc3)NC1=O)C(=O)N[C@@H](Cc1c[nH]cn1)C(=O)N[C@@H](CCCNC(=N)N)C(=O)N[C@@H](CCCNC(=N)N)C(=O)N[C@H](C(=O)N[C@@H](CC(N)=O)C(=O)O)CSSC[C@H](NC(=O)[C@H](Cc1ccccc1)NC(=O)CN)C(=O)N[C@@H](Cc1c[nH]c3ccccc13)C(=O)N[C@@H](CC(N)=O)C(=O)N[C@@H](C(C)C)C(=O)N2", "note": "[compound 275] (H-GFCWNVCLYRNGVRVCHRRCN-OH; disulfide 3-20, 7-16 (inferred); N-terminus and C-terminus assumed)", "values": [
      {"measurement": "fraction unbound", "result": 0.2}
    ]},
    {"smiles": "CC(C)[C@@H]1NC(=O)[C@@H]2CSSC[C@H](NC(=O)[C@H](C(C)C)NC(=O)[C@H](CCCNC(=N)N)NC(=O)[C@H](CCCCN)NC(=O)CNC(=O)[C@H](CC(N)=O)NC(=O)[C@H](CCCNC(=N)N)NC(=O)[C@H](Cc3ccc(O)cc3)NC1=O)C(=O)N[C@@H](Cc1ccc(O)cc1)C(=O)N[C@@H](CCCNC(=N)N)C(=O)N[C@@H](CCCNC(=N)N)C(=O)N[C@H](C(=O)N[C@@H](CC(N)=O)C(=O)O)CSSC[C@H](NC(=O)[C@H](Cc1ccccc1)NC(=O)CN)C(=O)N[C@@H](Cc1c[nH]c3ccccc13)C(=O)N[C@@H](Cc1ccc(O)cc1)C(=O)N[C@@H](C)C(=O)N2", "note": "[compound 80] (H-GFCWYACVYRNGKRVCYRRCN-OH; disulfide 3-20, 7-16 (inferred); N-terminus and C-terminus assumed)", "values": [
      {"measurement": "fraction unbound", "result": 0.04}
    ]},
    {"smiles": "CC(C)[C@@H]1NC(=O)CNC(=O)[C@H](CC(N)=O)NC(=O)[C@H](CCCNC(=N)N)NC(=O)[C@H](Cc2ccc(O)cc2)NC(=O)[C@H](C(C)C)NC(=O)[C@@H]2CSSC[C@H](NC(=O)[C@H](C(C)C)NC(=O)[C@H](CCCNC(=N)N)NC1=O)C(=O)N[C@@H](Cc1ccc(O)cc1)C(=O)N[C@@H](CCCNC(=N)N)C(=O)N[C@@H](CCCNC(=N)N)C(=O)N[C@H](C(=O)N[C@@H](CC(N)=O)C(=O)O)CSSC[C@H](NC(=O)[C@H](Cc1ccccc1)NC(=O)CN)C(=O)NCC(=O)N[C@@H](CCCNC(=N)N)C(=O)N[C@@H](C(C)C)C(=O)N2", "note": "[compound 61] (H-GFCGRVCVYRNGVRVCYRRCN-OH; disulfide 3-20, 7-16 (inferred); N-terminus and C-terminus assumed)", "values": [
      {"measurement": "fraction unbound", "result": 0.28}
    ]}
  ]
}
